Measurements published in US8697877B2, “Oxyindole derivatives with motilin receptor agonistic activity” (RaQualia Pharma Inc., priority 2009, dated 2014).

Target: T1, human motilin receptor (GPR38) (Homo sapiens, UniProt O43193)
T1 construct: expressed in transfected cells; host or cells: CHO-K1
Assay: GPR38 (Motilin Receptor) Functional Assay, NFAT-beta-lactamase reporter in CHO-K1 cells
Assay type: cell-based
Details: not given
Description: The potencies and efficacies of the compounds of this invention for GPR38 can be determined by reporter assay performed on the human cloned receptor as described herein.
GPR38 (Motilin Receptor) Functional Assay
A CHO-K1 cell line stably transfected NFAT-beta-lactamase reporter and human motilin receptor gene was used. The cells were cultured in culture medium (Dulbecco's modified eagle medium containing 10% fetal bovine serum, 1 mM sodium pyruvate, 0.1 mM MEM nonessential amino acids, 25 mM HEPES buffer, 50 units/mL penicillin, 50 microg/mL streptomycin, 100 microg/mL zeocin, and 500 microg/mL G418). The cells were harvested with 0.05% trypsin EDTA and centrifuged. The cell pellets were resuspended in the culture medium and plated into a black/clear bottom 384-well plate at a density of 8000 cells per well, then incubated at 37° C. with 5% CO2 for over night (about 20 hours). On the day of assay, the culture medium was aspirated and 20 microL of assay medium (Dulbecco's modified eagle medium containing 100 units/mL penicillin and 100 microg/mL streptomycin) was added to each well, then the cell plates were placed in incubator at 37° C. with 5% CO2 for 1.5 hours. Compounds were prepared in 100% DMSO and these were diluted to 5× of final concentration with assay buffer (Hanks balanced salt solution, 20 mM HEPES, and 0.1% BSA), then dispensed into 384-well plate (5 microL/well). After incubation at 37° C. with 5% CO2 for 4.5 hours, CCF4-AM loading solution (Invitrogen Corp.) was added to each well. After incubation for 2 hours at room temperature, fluorescence intensities were measured by using plate reader FDSS (Hamamatsu Photonics K. K.) with excitation 400 nm, emission 465 nm/540 nm. Agonistic activity (EC50) was calculated from the sigmoidal dose-response curve using GraphPad Prism software (GraphPad Software, Inc.).

T1 sequence (O43193 whole entry): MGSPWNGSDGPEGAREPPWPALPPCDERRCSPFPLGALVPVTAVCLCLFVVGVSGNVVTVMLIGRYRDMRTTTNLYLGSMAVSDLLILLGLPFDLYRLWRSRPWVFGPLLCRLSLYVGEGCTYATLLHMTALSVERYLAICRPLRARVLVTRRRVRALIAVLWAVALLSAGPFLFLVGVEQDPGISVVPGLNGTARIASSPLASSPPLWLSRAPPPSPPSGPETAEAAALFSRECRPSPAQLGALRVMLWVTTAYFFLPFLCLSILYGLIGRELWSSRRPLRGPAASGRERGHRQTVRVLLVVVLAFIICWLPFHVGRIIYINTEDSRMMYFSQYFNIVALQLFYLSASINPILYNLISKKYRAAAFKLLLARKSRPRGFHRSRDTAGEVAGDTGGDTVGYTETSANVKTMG

| Compound | EC50 [nM] |
| --- | --- |
| CN[C@@H]1CC[C@H](C(=O)N[C@@H](COc2ccccc2)C(=O)N2CCC(N3C(=O)C(C)(C)c4ccccc43)CC2)C1 [Example 38, (1S,3R)-N-((S)-1-(4-(3,3-dimethyl-2-oxoindolin-1-yl)piperidin-1-yl)-1-oxo-3-phenoxypropan-2-yl)-3-(methyl-amino)cyclopentanecarboxamide] | ≤ 10 |
| CN[C@@H]1CC[C@H](C(=O)N[C@@H](COc2ccccc2Cl)C(=O)N2CCC(N3C(=O)C(C)(C)c4ccccc43)CC2)C1 [Example 39, (1S,3R)-N-((S)-3-(2-chlorophenoxy)-1-(4-(3,3-dimethyl-2-oxoindolin-1-yl)piperidin-1-yl)-1-oxopropan-2-yl)-3-(methylamino)cyclopentanecarboxamide] | ≤ 10 |
| CN[C@@H]1CC[C@H](C(=O)N[C@H](CC(=O)N2CCC(N3C(=O)C(C)(C)c4ccccc43)CC2)Cc2ccccc2)C1 [Example 43, (1S,3R)-N-((S)-4-(4-(3,3-dimethyl-2-oxoindolin-1-yl)piperidin-1-yl)-4-oxo-1-phenylbutan-2-yl)-3-(methylamino) cyclopentanecarboxamide] | ≤ 10 |
| CC1(C)C(=O)N(C2CCN(C(=O)[C@H](CCc3ccccc3)NC(=O)[C@@H]3CCCNC3)CC2)c2ccc(F)cc21 [Example 44, (R)—N—((S)-1-(4-(5-fluoro-3,3-dimethyl-2-oxoindolin-1-yl)piperidin-1-yl)-1-oxo-4-phenylbutan-2-yl)piperidine-3-carboxamide] | ≤ 10 |
| CN[C@@H]1CC[C@H](C(=O)N[C@@H](CCc2ccccc2)C(=O)N2CCC(N3C(=O)C(C)(C)c4cc(F)ccc43)CC2)C1 [Example 45, (1S,3R)-N-((S)-1-(4-(5-fluoro-3,3-dimethyl-2-oxoindolin-1-yl)piperidin-1-yl)-1-oxo-4-phenylbutan-2-yl)-3-(methylamino)cyclopentane-carboxamide] | ≤ 10 |
| CNC(C)(C)CC(=O)N[C@@H](CCc1ccccc1)C(=O)N1CCC(N2C(=O)C(C)(C)c3cc(F)ccc32)CC1 [Example 46, (S)-N-(1-(4-(5-fluoro-3,3-dimethyl-2-oxoindolin-1-yl)piperidin-1-yl)-1-oxo-4-phenylbutan-2-yl)-3-methyl-3-(methylamino)butanamide] | ≤ 10 |
| CN[C@H]1CCN(C(=O)N[C@@H](CCc2ccccc2)C(=O)N2CCC(N3C(=O)C(C)(C)c4ccccc43)CC2)C1 [Example 47, (S)—N—((S)-1-(4-(3,3-dimethyl-2-oxoindolin-1-yl)piperidin-1-yl)-1-oxo-4-phenylbutan-2-yl)-3-(methylamino)pyrrolidine-1-carboxamide] | ≤ 10 |
| CC1(C)C(=O)N(C2CCN(C(=O)[C@H](CCc3ccccc3)NC(=O)NC[C@@H]3CCCN3)CC2)c2ccccc21 [Example 48, 1-((S)-1-(4-(3,3-dimethyl-2-oxo-indolin-1-yl)piperidin-1-yl)-1-oxo-4-phenylbutan-2-yl)-3-((S)-pyrrolidin-2-ylmethyl)urea] | ≤ 10 |
| CC1(C)C(=O)N(C2CCN(C(=O)[C@H](CCc3ccccc3)NC(=O)N[C@@H]3CCCNC3)CC2)c2ccccc21 [Example 49, 1-((S)-1-(4-(3,3-dimethyl-2-oxo-indolin-1-yl)piperidin-1-yl)-1-oxo-4-phenylbutan-2-yl)-3-((R)-piperidin-3-yl)urea] | ≤ 10 |
| CN(C[C@@H]1CCCN1)C(=O)N[C@@H](CCc1ccccc1)C(=O)N1CCC(N2C(=O)C(C)(C)c3ccccc32)CC1 [Example 50, 3-((S)-1-(4-(3,3-dimethyl-2-oxo-indolin-1-yl)piperidin-1-yl)-1-oxo-4-phenylbutan-2-yl)-1-methyl-1-((S)-pyrrolidin-2-ylmethyl)urea] | ≤ 10 |
| CC1(C)C(=O)N(C2CCN(C(=O)[C@H](CCc3ccccc3)NC(=O)NC[C@H]3CCCN3)CC2)c2ccccc21 [Example 51, 1-((S)-1-(4-(3,3-dimethyl-2-oxo-indolin-1-yl)piperidin-1-yl)-1-oxo-4-phenylbutan-2-yl)-3-((R)-pyrrolidin-2-ylmethyl)urea] | ≤ 10 |
| CC1(C)C(=O)N(C2CCN(C(=O)[C@H](CCc3ccccc3)NC(=O)N[C@@H]3CCNC3)CC2)c2ccccc21 [Example 52, 1-((S)-1-(4-(3,3-dimethyl-2-oxo-indolin-1-yl)piperidin-1-yl)-1-oxo-4-phenylbutan-2-yl)-3-((R)-pyrrolidin-3-yl)urea] | ≤ 10 |
| CC1(C)C(=O)N(C2CCN(C(=O)[C@H](CCc3ccccc3)NC(=O)NC[C@@H]3CCNC3)CC2)c2ccccc21 [Example 53, 1-((S)-1-(4-(3,3-dimethyl-2-oxo-indolin-1-yl)piperidin-1-yl)-1-oxo-4-phenylbutan-2-yl)-3-((R)-pyrrolidin-3-ylmethyl)urea] | ≤ 10 |
| C[C@@H]1CN(C(=O)N[C@@H](CCc2ccccc2)C(=O)N2CCC(N3C(=O)C(C)(C)c4ccccc43)CC2)CCN1 [Example 54, (R)-N-((S)-1-(4-(3,3-dimethyl-2-oxoindolin-1-yl)piperidin-1-yl)-1-oxo-4-phenylbutan-2-yl)-3-methyl-piperazine-1-carboxamide] | ≤ 10 |
| CCC1(NC(=O)N[C@@H](CCc2ccccc2)C(=O)N2CCC(N3C(=O)C(C)(C)c4ccccc43)CC2)CCNCC1 [Example 55, (S)-1-(1-(4-(3,3-dimethyl-2-oxo-indolin-1-yl)piperidin-1-yl)-1-oxo-4-phenylbutan-2-yl)-3-(4-ethylpiperidin-4-yl)urea] | ≤ 10 |
| CC1(NC(=O)N[C@@H](CCc2ccccc2)C(=O)N2CCC(N3C(=O)C(C)(C)c4ccccc43)CC2)CCNCC1 [Example 56, (S)-1-(1-(4-(3,3-dimethyl-2-oxo-indolin-1-yl)piperidin-1-yl)-1-oxo-4-phenylbutan-2-yl)-3-(4-methyl-piperidin-4-yl)urea] | ≤ 10 |
| CC1(C)C(=O)N(C2CCN(C(=O)[C@H](CCc3ccccc3)NC(=O)N[C@H]3CCNC3)CC2)c2ccccc21 [Example 57, 1-((S)-1-(4-(3,3-dimethyl-2-oxo-indolin-1-yl)piperidin-1-yl)-1-oxo-4-phenylbutan-2-yl)-3-((S)-pyrrolidin-3-yl)urea] | ≤ 10 |
| CC1(C)C(=O)N(C2CCN(C(=O)[C@H](CCc3ccccc3)NC(=O)NC[C@@H]3CCCCN3)CC2)c2ccccc21 [Example 60, 1-((S)-1-(4-(3,3-dimethyl-2-oxo-indolin-1-yl)piperidin-1-yl)-1-oxo-4-phenylbutan-2-yl)-3-((S)-piperidin-2-ylmethyl)urea] | ≤ 10 |
| CC1(C)C(=O)N(C2CCN(C(=O)[C@H](CCc3ccccc3)NC(=O)NC[C@@H]3CCCNC3)CC2)c2ccccc21 [Example 61, 1-((S)-1-(4-(3,3-dimethyl-2-oxo-indolin-1-yl)piperidin-1-yl)-1-oxo-4-phenylbutan-2-yl)-3-((R)-piperidin-3-ylmethyl)urea] | ≤ 10 |
| CC(C)(N)CNC(=O)N[C@@H](CCc1ccccc1)C(=O)N1CCC(N2C(=O)C(C)(C)c3ccccc32)CC1 [Example 62, (S)-1-(2-amino-2-methylpropyl)-3-(1-(4-(3,3-dimethyl-2-oxoindolin-1-yl)piperidin-1-yl)-1-oxo-4-phenyl-butan-2-yl)urea] | ≤ 10 |
| CN(C1CC1)[C@H]1CCN(C(=O)N[C@@H](CCc2ccccc2)C(=O)N2CCC(N3C(=O)C(C)(C)c4ccccc43)CC2)C1 [Example 63, (S)-3-(cyclopropyl(methyl)amino)-N-((S)-1-(4-(3,3-dimethyl-2-oxo-indolin-1-yl)piperidin-1-yl)-1-oxo-4-phenylbutan-2-yl)pyrrolidine-1-carboxamide] | ≤ 10 |

Same assay, conditions: ED50 (nM), Table 15; functional activity toward GPR38 (motilin receptor), (S) versus (R) amino acid linker

| Compound | EC50 [nM] |
| --- | --- |
| CN[C@H]1CCN(C(=O)N[C@@H](CCc2ccccc2)C(=O)N2CCC(N3C(=O)C(C)(C)c4ccccc43)CC2)C1 [Example 47, (S)—N—((S)-1-(4-(3,3-dimethyl-2-oxoindolin-1-yl)piperidin-1-yl)-1-oxo-4-phenylbutan-2-yl)-3-(methylamino)pyrrolidine-1-carboxamide] | 0.98 |
